Assay results as given in a melting point compilation (Tetko et al.).

melting point [°C] | SMILES
48 to 55 | C=Cc1ccc(OCc2ccccc2)c(OC)c1
238 | N#C/C(=N/Nc1cccc(C(F)(F)F)c1)c1nc2ccccc2c(=O)[nH]1
46 | N#Cc1cc(F)c(Cl)cc1Cl
40.5 | CCCCCCCCCCCCS(=O)(=O)Cl
64 to 66 | CCCCOc1ccc(N)c([N+](=O)[O-])c1
135 | S=C(NCCc1ccccc1)Nc1ccccc1
35 | CCCCCCCCC=CCCCCCCCCCCCCO
80 | N#Cc1ccncc1C#N
-113 | CCOC
84 to 85 | c1ccc(C23CC4CC(CC(C4)C2)C3)cc1
49 | Cc1ccc(F)c(O)c1Cl
166 | O=C(Nc1ccccc1CCc1ccccc1)c1ccccc1
164 | CC1(C)C2CC3C(c4ccccc4)(C2=C(c2ccccc2)c2ccccc2)C31C (stereo unspecified)
211 | CN(C)c1ccc(C2C(C#N)=C(N)SC(N)=C2c2nc3ccccc3s2)cc1 (stereo unspecified)
93 to 96 | O=C(O)C=Cc1cccc(OC(F)(F)F)c1
79 to 82 | COC(=O)c1ccc(C#Cc2ccccc2)o1
53 to 55 | CCSc1ncccc1C(=O)Cl
82 to 88 | CC(C)NC(=O)CN1CCNCC1
-15 | C=C(C)CCCCCCCCCCCC
105 | CNc1ccc2cc3ccc4c(c3nc2c1CO)COCN4
159 | N#CCC(=O)c1ccc(N)cc1
98 to 102 | COC1C(C(O)CO)OC2OC3(CCCCC3)OC21 (stereo unspecified)
65 | CC(O)(C(=O)c1ccccc1)c1ccccc1 (stereo unspecified)
196 | COc1ccccc1C1Nn2c(nnc2-c2ccccc2)S1 (stereo unspecified)

melting point [°C] | SMILES
115 to 117 | CCCCCCCCCCCCCCCCS(=O)(=O)c1ccc(N)cc1
162 | C#CC1(OC(C)=O)CCC2C3CCC4=CC(=O)CCC4C3CCC21C (stereo unspecified)
85 to 90 | CCOC(=O)c1cc2cccc(OC)c2o1
98 | O=CC(=O)O
272 | Cn1c(=O)c(C2=NNC(=O)C2=CNc2ccccc2)c(O)c2ccccc21
293 | CC1(C)OC2CC3C4CCC5=CC(=O)C=CC5(C)C4(F)C(O)CC3(C)C2(C(=O)CO)O1 (stereo unspecified)
144 | CCC(CCC(C)C1CCC2C3=CC=C4CC(O)CCC4(C)C3CCC21C)C(C)C (stereo unspecified)
118 | CCOC(=O)C(=O)c1cc(C(=O)C(=O)OCC)c([N+](=O)[O-])cc1[N+](=O)[O-]
-25 | CC(=O)N(C)C(C)=O
206 | CCOC(=O)C1=C(C)NC(=O)NC1c1ccco1 (stereo unspecified)
42 | O=C1CCCCCCCCC1O (stereo unspecified)
93.5 to 98 | COCCOc1ccc(CCC(=O)O)cc1N
130 | COC(=O)c1cc(Cl)ccc1NC(C)=O
150 | CN(C)c1ccc(C=Cc2ccccc2)cc1
152 | CC(=O)N(C)c1cccc(N(C)C(C)=O)c1
84 to 86 | CN(C(=O)CCl)c1c2c(nn1C)CCCC2
233 | Cc1nc(N)nc2c1c(=O)n(-c1ccccc1)c1ccccc21
18.7 | COC(=O)c1ccccn1
43 | CCCCCCCCCCCCCC(=O)CC
105 to 108 | CCOC(=O)c1ccc2c(c1)nnn2C
170 | CC(=O)c1nn(-c2cccc(C)c2C)c(=N)s1
235 | CC(=O)N(Nc1ccccc1)c1ccc(-c2ccc(N(Nc3ccccc3)C(C)=O)cc2)cc1
210 | O=C(O)c1ccc2[nH]ccc2c1
143 | Cc1ccc(C(c2ccc(C)o2)c2cc([N+](=O)[O-])ccc2O)o1

melting point [°C] | SMILES
99 | c1cc2c3c(cccc3c1)CNC2
111 to 113 | CCOC(=O)c1sc(SC)c(S(C)(=O)=O)c1N
30 | O=S(=O)(Cl)c1ccc(F)cc1Cl
69.4 | CCCCCC(C)OC(=O)COc1ccc(Cl)c2cccnc12 (stereo unspecified)
285 to 288 | c1cc2ccc1CCc1ccc(cc1)CC2
171 | Ic1nccn1C(c1ccccc1)(c1ccccc1)c1ccccc1
65 to 69 | O=C1CCC2C3CCC(=O)C3C12 (stereo unspecified)
132 to 133 | COc1ccc(C=C2N=C(c3ccccc3)OC2=O)cc1OC
198 | CCOC(=O)c1sc2sc(C(=O)OCC)c(N=C3SCCS3)c2c1N=C1SCCS1
78 to 80 | O=S(=O)(Cl)Cc1ccccc1Br
46 to 49 | NCc1cc(-c2ccco2)on1
107 to 109 | COc1ccc(C(=O)c2ccc(-c3ccccc3)cc2)cc1OC
206 to 207 | O=C(O)c1ccccc1Cn1cncn1
216 | NC(=O)N1c2ccccc2CC(=O)c2ccccc21
68 | O=S(=O)(Cl)c1cnc(Cl)c(Br)c1
222 to 223 | CS(=O)(=O)c1ccc2nc(N)sc2c1
41 | Cc1ccc(C(C)C(=O)O)cc1 (stereo unspecified)
-76 | CCCCC(CC)CN (stereo unspecified)
-59 | C[Si](C)(C)O[Si](C)(C)C
46 to 50 | Cc1cnc(Cl)c([N+](=O)[O-])c1
178 | N#C/C(=N/Nc1ccccc1)c1nc(-c2ccc(Cl)cc2)cs1
48 to 52 | c1ccc2c(c1)OCCOCCOCCOCCOc1ccccc1OCCO2
132 | CCCCCCCCCCCCCCCCOc1ccc(C(=O)O)cc1
213 to 214 | N#CC(=CN)S(=O)(=O)c1ccc(Cl)cc1

melting point [°C] | SMILES
125 | O=C(c1ccc(Cl)cc1)c1noc(-c2ccc(Br)cc2)c1S(=O)(=O)c1ccccc1
22 to 25 | CCCCCCCCOc1ccccc1OCCCCCCCC
-6 | O=CCCCC=O
-99.4 | FC(F)(F)C(F)(F)Cl
220 | C[C@H](CC=C(c1ccccc1)c1ccccc1)[C@H]1CC[C@H]2[C@@H]3C(O)CC4CC(O)CC[C@]4(C)[C@H]3CC(O)[C@]12C (stereo partly specified)
124 | C1CN(SSN2CCOCC2)CCO1
-3 | COC(=O)CS
88 | CCCCCCCC(=O)NN
217 to 218 | Cc1ccc(Sc2ccc(C=CC(=O)O)cc2[N+](=O)[O-])cc1
184 to 185 | O=C(O)c1cc(Br)cnc1Br
121 to 122 | CC(C)(C)OC(=O)N1c2ccccc2CC1C(=O)O (stereo unspecified)
150 | O=C(O)c1c(Br)cccc1Br
169 | CN(C(=O)C(C(F)(F)F)C(F)(F)F)C1CCCCC1
140 | CC1(C)CC(C)(c2ccc(O)cc2)c2ccccc2O1 (stereo unspecified)
93 | CN1C(=O)c2ccccc2C1OC(=O)c1ccccc1 (stereo unspecified)
68 | C=C(Br)C(=O)O
91 | COc1ccc(Br)cc1C#N
116 | N#Cc1ccc2c(c1)N(CCCN1CCC(O)CC1)c1ccccc1S2
28 to 30 | C#Cc1ccc(OC)cc1
48.5 | OCC(O)CI (stereo unspecified)
125 to 126 | CCOC(=O)c1[nH]c(C)cc1C
177 | N#CC1C(=O)CC(=O)CC1c1ccccc1 (stereo unspecified)
50 to 51 | COC(=O)c1sccc1Br
46.5 | c1ccc2nn(C3CCCCC3)nc2c1

melting point [°C] | SMILES
31 | Cc1cccc(C(C)(C)C)c1O
111 | O=C(O)CCSc1ccc(Br)cc1
213 | Nc1ccc2cc(N)ccc2c1
61 | Cc1cc(Cl)cc([N+](=O)[O-])c1
66 to 67 | OCc1ccc2nonc2c1
169 to 171 | c1cc(NNc2cccc(-n3cccn3)c2)cc(-n2cccn2)c1
40 | O=C(NCc1ccccc1)OCCO
155 to 156 | CSC(SC)=C1CCCC(=C(SC)SC)C1=C(C#N)C#N
200 to 201 | CC(/C=C(\C)c1ccc(-c2ccccc2)cc1)=NNc1ccc([N+](=O)[O-])cc1[N+](=O)[O-]
93.3 | OCCNC(=S)C(=S)NCCO
32 | Fc1cccc(Br)n1
163 | CC(C(=O)O)=C(c1ccccc1)c1ccccc1
5 | CC(=O)c1ccccc1O
66 | FC(F)(F)C(F)(F)C(F)(F)C(F)(F)C(F)(F)C(F)(F)C(F)(F)C(F)(F)C(F)(F)C(F)(F)I
227 | c1ccc(-c2c(-c3[nH]c4ccccc4c3-c3ccccc3)[nH]c3ccccc23)cc1
209 | N=c1sc(C(=O)c2cccs2)nn1-c1c(Cl)cc(Cl)cc1Cl
140 | CCCCNC(=O)NCC(=O)O
56.5 to 59 | CCOC(=O)c1cc(C)nc(Cl)n1
298 to 301 | Fc1cc2nc(S)[nH]c2cc1Cl
93 to 94 | CCOC(=O)c1c(-c2ccccc2)csc1NC(=O)CN(CC)CC

SMILES | melting point [°C]
C=C(C)C(=O)OCC1CO1 (stereo unspecified) | -82
O=C1NC(=S)NC(=O)C1=NNc1ccc(Br)cc1 | 268
Sc1ccccc1 | -14.9
CNNC | -9
CN1CCN(Cc2ccccc2N)CC1 | 87 to 88
CC1=C(C(=O)Nc2ccccc2)S(=O)(=O)CCO1 | 120
Oc1ccc(C(O)C2CCCCN2)cc1O (stereo unspecified) | 204
O=C(Nc1ccccc1)N(Cc1ccc(Cl)cc1)C1CCCC1 | 132
COc1cc2c(c(O)c1OC)C(C)N(C)CC2 (stereo unspecified) | 112
FC(F)(F)C(Cl)Cl | -107
Clc1cc(Cl)c2c(c1Cl)Oc1c(Cl)cc(Cl)c(Cl)c1O2 | 238
O=C(CBr)c1cccc(Cl)c1 | 39 to 41
CC(CC(C(N)=O)(c1ccccc1)c1ccccn1)N(C)C (stereo unspecified) | 156
COc1cc2c(c(O)c1OC)CCN(C)C2C (stereo unspecified) | 152
CC(=O)OOC(=O)c1ccccc1 | 37
